C[N+](C)(C)CC(=O)[O-]
Conditions | solubility (mole fraction)
in ethanol, 282.95 K | 0.0264
in ethanol, 288.15 K | 0.0298
in ethanol, 293.65 K | 0.0336
in ethanol, 298.45 K | 0.0372
in ethanol, 303.05 K | 0.041
in isopropanol, 283.45 K | 0.00458
in isopropanol, 288.65 K | 0.0054
in isopropanol, 293.15 K | 0.00622
in isopropanol, 298.45 K | 0.0071
in isopropanol, 303.35 K | 0.00823
in methanol, 283.15 K | 0.117
in methanol, 288.15 K | 0.121
in methanol, 293.55 K | 0.126
in methanol, 298.25 K | 0.131
in methanol, 303.2 K | 0.136
in n-butanol, 283.45 K | 0.00812
in n-butanol, 288.7 K | 0.00964
in n-butanol, 293.05 K | 0.0109
in n-butanol, 298.35 K | 0.0125
in n-butanol, 302.9 K | 0.0142
in n-propanol, 282.85 K | 0.0134
in n-propanol, 288.15 K | 0.0154
in n-propanol, 293.55 K | 0.0177
in n-propanol, 298.23 K | 0.02
in n-propanol, 303.45 K | 0.0225
in water, 283.15 K | 0.184
in water, 288.25 K | 0.189
in water, 293.2 K | 0.194
in water, 298.35 K | 0.2
in water, 303.25 K | 0.206

From BigSolDB 2.1
